Key:
healthy male volunteers = experiment: Saxon test of saliva production, open-label rising dose study; assay type: in vivo, human; conditions: for saliva production over time: drug administered alone, pre-dose to 6 h post-dose; for effect of dose on saliva production: drug alone, rising dose levels
Protocol: The study examined the effects of clonidine and oxybutynin on saliva production in 9 healthy male volunteers. This was an open-label, non-randomised, two-period, rising dose study.
The subjects were assessed on each dosing occasion for saliva production pre-dose and 1 h, 2.5 h, 4 h and 6 h post-dose. Vital signs were recorded at specified times during each study period and adverse events were reported throughout.
Using this information, a mixed effects regression analysis of the % reduction in saliva versus dose with subject as a random effect was performed for both clonidine and oxybutynin. From this model, an approximate ED30 and an ED50 were calculated.
The key observation in this study is based on the Saxon test. See Kohler & Winter, Arthritis Rheum.

[1] = tested on: sialorrhoea induced by clozapine; conditions: in vivo; cited from earlier work
Parkinson's patients = conditions: 0.15 mg per os, 17 Parkinson's patients; cited from earlier work
[2] = tested on: patients receiving clozapine with excessive drooling; conditions: nasal spray 0.03-0.06% sublingually, 8 patients, after several weeks of use; cited from earlier work
patients = conditions: tablets; cited from earlier work
[3] = tested on: patients with Parkinson's disease; conditions: ophthalmic solution given sublingually, cited from earlier work

## Clc1cccc(Cl)c1N=C1NCCN1 [clonidine]
Healthy male volunteers; 50 mcg clonidine
  AUCT of saliva production compared to placebo: reduction in AUCTs
Healthy male volunteers; 100 mcg clonidine
  AUCT of saliva production compared to placebo: reduction in AUCTs
Healthy male volunteers
  saliva production over time: trend towards a reduction in saliva production over time
  effect of dose on saliva production: significant with increasing dose levels
[1]
  reduction of sialorrhoea induced by clozapine: effective in reducing sialorrhoea
Parkinson's patients
  patients who experienced side-effects: Four of the 17
  reduction of sialorrhoea: significantly reduce sialorrhoea

## CC(C)[N+]1(C)[C@@H]2CC[C@H]1C[C@@H](OC(=O)C(CO)c1ccccc1)C2 (stereo partly shown) [ipratropium]
[2]
  non-responder patients: 1 patient
  patients with full response: 2 patients
  patients with partial response (symptoms controlled for 2-8 hours): 5 patients

## CCN(CC)CC#CCOC(=O)C(O)(c1ccccc1)C1CCCCC1 (stereo not shown) [oxybutynin]
Healthy male volunteers; 10 mg oxybutynin
  AUCT of saliva production compared to placebo: AUCT was reduced
Healthy male volunteers
  saliva production over time: trend towards a reduction in saliva production over time
  effect of dose on saliva production: no significant effects of dose on saliva production

## C[N+]1(C)CCC(OC(=O)C(O)(c2ccccc2)C2CCCC2)C1 (stereo not shown) [glycopyrrolate]
patients
  patients by whom the drug is not well tolerated: 20-25 % of patients

## CN1[C@@H]2CC[C@H]1C[C@@H](OC(=O)C(CO)c1ccccc1)C2 (stereo partly shown) [atropine]
[3]; 7 patients
  patients who suffered hallucinations: 2 of the 7
[3]; small case study
  saliva production: significant decline in saliva production
